Experimental data from patent US8012487B2, “Synthetic peptides and DNA sequences for treatment of multiple sclerosis” (priority 2001, dated 2011).
Where no end group is shown, it is not given here.

How the values were obtained:
[1] = tested on: EAE induced by Y-MSPb-reactive line T-cells; assay: EAE associated with multiple pathogenic autoreactivities induced by transfer of Y-MSPb-reactive line T-cells; type: in vivo, (C3H.SW×SJL/J)F1 mice; conditions: in PBS given daily i.p. from the day of T-cell transfer; FIG. 9B
Method: Y-MSPb, the purified protein product of the synthetic Y-MSPb gene, disclosed in WO 01-31037, designed to encode tandemly arranged disease-relevant epitopes clusters of the encephalitogenic proteins MBP, PLP, MOG, and MOBP, was tested for its immunomodulatory effect on EAE associated with multiple pathogenic autoreactivities, upon tolerogenic administration, in the same way as described for Y-MSPa in WO 01-31037.
Line T-cells were selected in vitro with Y-MSPb from lymph node cells (LNCs) of (C3H.SW×SJL/J)F1 mice immunized with Y-MSPb (containing encephalitogenic epitopes of MOG, MBP, PLP and MOBP) in CFA, and were analyzed after primary response (left panel) and after four cycles of selection (right panel) for their proliferative response to Y-MSPb, phMOG 34-56, phMOG 1-22, shMOG/E, PLP 139-151, shPLP/E, MBP 87-101 and shMBP/E (10 μ/ml). The proliferative response to purified protein derivative (PPD) (5 μ/ml) was analyzed as a measure of specificity. The line T cells are directed against each of the myelin autoantigens.

[2] = tested on: chronic EAE induced with whole PLP; conditions: SJL/J mice; tolerization; cited from earlier work
[3] = tested on: EAE induced with MBP, MOG or MBP/MOG combination; conditions: (PL/J×SJL/J) F1 mice, cited from earlier work
[4] = tested on: lymph node cells; assay: Ex vivo response to MOG 37-52 by lymph node cells isolated from treated mice; type: cell-based; conditions: cells from APL-treated C3H.SW mice
[5] = tested on: EAE induced with MOG 37-52; assay: EAE induced with MOG 37-52, treatment with MOG APLs; type: in vivo; conditions: C3H.SW mice; 400 μg in PBS i.v. on days 5, 7, 9 and 12 after encephalitogenic challenge; FIG. 8
[6] = tested on: H-2^b haplotype mice (C3H.SW, C57BL); assay: Encephalitogenicity of T-cell responses elicited by APLs; type: in vivo; conditions: H-2^b mice; not shown
Description: (§1) For EAE induced in H-2^b haplotype mice (C3H.SW, C57BL) by MOG 35-55 (SEQ ID NO: 234), we have defined residues 41 and 44 as crucial TCR contact residues for the interaction between the encephalitogenic nonameric core sequence MOG 40-48, found by molecular modelling studies to represent the preferred binding mode for MOG 35-55 to IA^b, and the TCR of H-2^b MOG-specific T-cells. APLs with non-conservative substitutions at either or both of these residues elicited T-cell responses which were not encephalitogenic (not shown). In vitro, these APLs inhibited the proliferation of T-cell clones to MOG 37-52, the minimal optimal stimulatory peptide. […] MOG35-55-specific T-cell line was raised from MOG35-55-immunized C3H.SW mice as described (Mendel et al., 1996). Cytokine assays were performed by ELISA according to PharMingen standard protocols.

[7] = tested on: APL-specific T-cell lines; assay: Cytokine profile of APL-specific T-cell lines (ELISA); type: cell-based, mice; conditions: pilot studies, not shown
Description: as §1

[8] = tested on: TCR; assay: TCR signaling in MOG 37-52-reactive T-cell clones; type: cell-based, mice; conditions: peptide alone; not shown
Method: Possible mechanisms by which the relevant APLs may inhibit MOG 37-52-reactive T-cell clones in vitro were tested by analyzing their effect on TCR signaling, as well as on cytokine secretion by the clones.

PLP139-151: major encephalitogenic peptide of PLP (CHCLGKWLGHPDK; UniProt P60202 139-151, looked up, fragment)
EAE induced by Y-MSPb-reactive line T-cells: disease incidence or severity [1]: no significant effect | chronic EAE induced with whole PLP: acute phase and relapses [2]: abrogated the primary acute phase, but not subsequent relapses

MBPAc1-11: immunodominant encephalitogenic epitope within MBP (Ac-MGNHSGKRELS; UniProt P04370 1-11, looked up, fragment)
MBP-induced EAE [3]: suppresses | MOG-induced EAE [3]: no effect | clinical severity of EAE induced with a combination of MBP and MOG ([3]; tolerogenic administration): marginal therapeutic effect

MOG 37-52: native MOG peptide, the minimal optimal stimulatory peptide (VGWYRPPFSRVVHLYR; Synthetic peptide containing sequence 37-52 of MOG.)
EAE induced by Y-MSPb-reactive line T-cells: disease incidence or severity [1]: no significant effect

MOG 37-Q41-52: MOG 37-52 altered peptide ligand substituted at TCR contact residue 41 (VGWYQPPFSRVVHLYR; The peptide of SEQ ID NO231 in which the residue at position 5 was replaced by Gln.)
response ex vivo to MOG 37-52 by lymph node cells isolated from treated mice [4]: markedly reduced response | severity and incidence of EAE induced with the native MOG 37-52 [5]: marked decrease

MOG 37-A44-52: APL of MOG 37-52 wherein F44 is substituted by A44 (VGWYRPPASRVVHLYR; The peptide of SEQ ID NO231 in which the residue at position 8 was replaced by Ala.)
encephalitogenicity of the APL / of the T-cell responses it elicits [6]: non-encephalitogenicity | response ex vivo to MOG 37-52 by lymph node cells isolated from treated mice [4]: markedly reduced response | severity and incidence of EAE induced with the native MOG 37-52 [5]: marked decrease | cytokine profile of APL-specific T-cell lines [7]: elicits Th2 T-cells | TCR signaling in the T-cell clones [8]: induces partial TCR signaling
